Experimental data published in patent US20080146555A1, “Uses of Kinase Inhibitors and Compositions Thereof” (GPC Biotech, Inc, priority 2004, published 2008).
Where a name gives a salt, the structure may show the parent alone. Read-outs that look alike come from different tables or passages of the source.

Tests used:
CEM/C2 = assay: SRB cytotoxicity, camptothecin resistant cells; format: cell-based, human; details: for IC50: Homo sapiens, CEM/C2, 72 h, SRB
Description: (§1) In these experiments, the P-glycoprotein expressing NCI-Adr resistant subline (Vickers et al., 1989. Mol Endocrinology 3 (1):157-164) was used. […] Briefly, cells were plated in 96 well dishes 24 hours prior to compound addition. Where noted, they were exposed to verapamil for 4 hours prior to compound addition and then throughout the treatment period (72 hours). The assay was terminated with the addition of cold TCA to a final concentration of 10% and the plates were incubated for one hour at 4° C. The plates were then washed 5 times with water and 100 μl of a Sulforhodamine B solution (4%) was added to each well. The plate was then incubated for 10 minutes at room temperature before removal of unbound dye by washing with 1% acetic acid.
The Camptothecin resistant CEM/C2 cells were derived from the T lymphoblastoid leukemia cell line CCRF/CEM by selection in the presence of Camptothecin in vitro (Kapoor et al., 1995. Oncology Research 7; 83-95, ATCC).
The effects of A37 and B16 were evaluated in the CCRF/CEM and CEM/C2 cells using the same SRB assay as described above, with 72-hour drug exposure.

Cdk7 = Cdk7 (Homo sapiens, UniProt P50613); assay: Cdk7 inhibition; format: biochemical
Description: Further inhibition results for subject compounds of the invention against other CDKs and further kinases are shown in Table 5, Table II and described in Example 6.
Table 3, Table 4, Table 5 and Table II show the results obtained for inhibition of a broad range of such kinases for subject compounds of the invention.

A129 = assay: SRB cytotoxicity, A129 parental cells; format: cell-based, human; details: Homo sapiens, 72 h
Description: as §1
The parental non-mutated cell line A129 was used as a control.

c-Src = biological target: T1, c-Src (Homo sapiens, UniProt P12931); assay: c-Src kinase assay; format: biochemical
T1 construct: purchased Upstate 14-326
Description: • 1. Src Kinase Reaction Buffer (SrcRB), Catalog #20-121: 100 mM Tris-HCl, pH 7.2, 125 mM MgCl2, 25 mM MnCl2, 2 mM EGTA, 0.25 mM sodium ortovanadate, 2 mM dithiothreitol. • 2. [γ-^32P]ATP: Stock 1 mCi/100 μl (3000 Ci/mmol, obtained from DuPont-NEN). Make 10 μl aliquots (100 μCi/vial). Before starting the assay dilute an aliquot to 1 μCi/μl with 90 μl of 500 μM unlabeled ATP containing 75 mM MnCl2 20 mM MOPS, pH 7.2, 25 mM β-glycerophosphate, 5 mM EGTA, 1 mM Na3VO4, 1 mM dithiothreitol. • 3. Src Kinase Substrate Peptide (Catalog #12-140): Use a 0.6-1.5 mM stock. Rehydrate 1 mg peptide with […] distilled water or SrcRB for a 1.5 mM stock or with 998 μl for a 0.6 mM stock. • 4. Src, active: Use 20-80 Units per assay point. Dilute as required with SrcRB.
• 1. Add 10 μl of SrcRB into a microfage tube. • 2. Add 10 μl Src Kinase substrate peptide (93-375 μM/assay). • 3. Add 4-16 μl of Src, active (20-80 Units/assay). • 4. Add 10 μl of the diluted [γ-^32P]ATP. • 5. Incubate for 10 minutes at 30° C. • 6. Add 20 μl of 40% TCA and incubate for 5 minutes at room temperature. • 7. Transfer 25 μl to the center of a 2 cm×2 cm P81 paper square. • 8. Wash the assay squares five times for 5 minutes each with 0.75% phosphoric acid. • 9. Wash the assay squares once with acetone for 5 minutes. • 10. Transfer the assay squares to a scintillation vial and add 5 ml scintillation cocktail. • 11. Read in scintillation counter. Compare cpm of enzyme samples to cpm of control samples that contain no enzyme (background control).

Lyn = biological target: T2, Lyn (Homo sapiens, UniProt P07948); assay: Lyn kinase assay; format: biochemical
T2 construct: purchased Upstate 14-510
Description: • 1. 10× Reaction Buffer: 500 mM Tris-HCl, pH 7.5, 1 mM EGTA, 1 mM sodium orthovanadate, 1% 2-mercaptoethanol. • 2. Enzyme Dilution Buffer (EDB): 50 mM Tris-HCl, pH 7.5, 1 mM EGTA, 0.1 mM sodium orthovanadate, 0.03% Brij-35, 0.1% 2-mercaptoethanol, 1 mg/ml BSA. • 3. Lyn, active: Dilute to 2-16 ng/μl with EDB. Use 2.5 μl per assay point. • 4. Poly(Glu-4-Tyr) (4:1): Prepare a 1 mg/ml stock. Use 2.5 μl per assay point for a final concentration of 0.1 mg/ml per assay point. • 5. [γ-^32P]ATP: Stock 1 mCi/100 μl (3000 Ci/mmol, obtained from PerkinElmer, Cat. # BLU002A). Make 10 μl aliquots (100 μCi/vial). Before starting the assay, dilute an aliquot to 1 μCi/μl with 90 μl of 75 mM MgCl2 and 500 μM cold ATP in 20 mM MOPS, pH 7.2, 25 mM β-glycerol phosphate, 5 mM EGTA, 1 mM sodium orthovanadate, 1 mM dithiothreitol.
• 1. Add 2.5 μl of 10× Reaction Buffer per assay. • 2. Add 2.5 μl of Poly (Glu-4-Tyr) (4:1). • 3. Add 2.5 μl (5-40 ng) Lyn, active. • 4. Add 7.5 μl of sterile, distilled water. • 5. Add 10 μl of the diluted [γ-^32P]ATP mixture. • 6. Incubate for 10 minutes at 30° C. • 7. Transfer a 20 μl aliquot onto the center of a 2 cm×2 cm P81 paper. • 8. Wash the assay squares three times for 5 minutes with 0.75% phosphoric acid. • 9. Wash the assay squares once for 5 minutes with acetone. • 10. Transfer the assay squares to vial and add 5 ml scintillation cocktail. • 11. Read in scintillation counter. Compare cpm of enzyme samples to cpm of control samples that contain background control.

[1] = read-out: SRC Inhibition (IC50)
[2] = read-out: LYN Inhibition (IC50)

T1 sequence (P12931 whole entry): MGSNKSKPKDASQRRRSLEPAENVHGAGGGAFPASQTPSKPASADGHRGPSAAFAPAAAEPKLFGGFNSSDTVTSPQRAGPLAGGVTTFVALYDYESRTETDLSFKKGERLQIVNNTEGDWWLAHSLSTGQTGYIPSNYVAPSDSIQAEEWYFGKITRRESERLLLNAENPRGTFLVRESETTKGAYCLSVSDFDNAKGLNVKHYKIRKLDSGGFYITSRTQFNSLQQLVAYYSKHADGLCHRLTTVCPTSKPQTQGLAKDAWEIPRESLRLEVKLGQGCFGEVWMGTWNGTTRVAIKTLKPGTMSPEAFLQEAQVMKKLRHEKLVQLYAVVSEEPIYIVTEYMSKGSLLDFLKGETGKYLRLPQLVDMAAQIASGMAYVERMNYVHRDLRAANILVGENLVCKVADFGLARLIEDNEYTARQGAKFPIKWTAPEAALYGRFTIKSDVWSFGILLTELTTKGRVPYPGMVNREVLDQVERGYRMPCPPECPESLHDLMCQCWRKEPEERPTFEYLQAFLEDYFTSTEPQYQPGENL
T2 sequence (P07948 whole entry): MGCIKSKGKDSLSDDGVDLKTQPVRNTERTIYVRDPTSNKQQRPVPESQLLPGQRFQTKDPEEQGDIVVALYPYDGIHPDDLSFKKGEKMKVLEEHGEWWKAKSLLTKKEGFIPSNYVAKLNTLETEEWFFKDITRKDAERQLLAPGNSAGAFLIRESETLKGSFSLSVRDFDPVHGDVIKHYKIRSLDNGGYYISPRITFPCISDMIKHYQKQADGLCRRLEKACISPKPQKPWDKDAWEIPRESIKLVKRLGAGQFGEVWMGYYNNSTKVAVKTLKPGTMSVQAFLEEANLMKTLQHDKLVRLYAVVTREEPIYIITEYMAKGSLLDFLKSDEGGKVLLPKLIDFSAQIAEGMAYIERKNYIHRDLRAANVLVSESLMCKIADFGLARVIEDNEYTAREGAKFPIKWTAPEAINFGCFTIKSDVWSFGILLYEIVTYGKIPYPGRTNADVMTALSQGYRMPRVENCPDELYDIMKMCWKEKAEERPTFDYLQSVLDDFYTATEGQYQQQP
Sequence of Cdk7 (P50613 whole entry, species assumed): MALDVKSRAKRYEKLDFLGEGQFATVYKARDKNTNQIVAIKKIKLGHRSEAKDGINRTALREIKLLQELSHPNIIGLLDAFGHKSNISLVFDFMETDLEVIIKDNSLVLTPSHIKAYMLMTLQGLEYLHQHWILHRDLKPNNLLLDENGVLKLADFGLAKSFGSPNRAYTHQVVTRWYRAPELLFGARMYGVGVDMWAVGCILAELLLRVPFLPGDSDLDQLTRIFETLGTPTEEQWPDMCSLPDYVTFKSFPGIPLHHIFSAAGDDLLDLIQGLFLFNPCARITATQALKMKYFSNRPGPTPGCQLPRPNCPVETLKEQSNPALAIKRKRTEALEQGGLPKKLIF
Sequence of Cdk7 (P51946 whole entry partner, species assumed): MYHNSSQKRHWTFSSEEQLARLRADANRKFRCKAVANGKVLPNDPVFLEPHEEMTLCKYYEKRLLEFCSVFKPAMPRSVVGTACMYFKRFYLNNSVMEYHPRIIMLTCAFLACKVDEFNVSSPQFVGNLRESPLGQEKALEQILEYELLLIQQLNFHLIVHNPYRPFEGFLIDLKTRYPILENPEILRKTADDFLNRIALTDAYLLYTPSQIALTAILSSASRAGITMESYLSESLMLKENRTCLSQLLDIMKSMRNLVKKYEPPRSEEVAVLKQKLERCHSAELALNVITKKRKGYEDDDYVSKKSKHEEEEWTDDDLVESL
Sequence of Cdk7 (P51948 whole entry partner, species assumed): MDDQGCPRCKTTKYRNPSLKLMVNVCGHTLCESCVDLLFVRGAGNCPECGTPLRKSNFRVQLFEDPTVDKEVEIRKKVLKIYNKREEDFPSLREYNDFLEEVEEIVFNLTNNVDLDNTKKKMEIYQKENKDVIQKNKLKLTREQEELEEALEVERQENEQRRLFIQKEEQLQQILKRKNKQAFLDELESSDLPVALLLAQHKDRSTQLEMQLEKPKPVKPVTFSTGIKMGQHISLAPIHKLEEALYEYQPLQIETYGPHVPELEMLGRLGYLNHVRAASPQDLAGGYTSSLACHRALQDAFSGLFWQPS

`COCCN1CCN(Cc2ccc(-c3n[nH]c4c3C(=O)c3c(NC(=O)NN5CCOCC5)cccc3-4)cc2)CC1` [Compound B16, N-[3-(4-{[4-(2-methoxyethyl)piperazinyl]methyl}phenyl)-4-oxoindeno[2,3-d]pyrazol-5-yl](morpholin-4-ylamino)carboxamide dihydrochloride] was tested, and the “RR (relative resistance) CEM/C2 vs CEM” value (CEM/C2) was 1.01, the IC50 (CEM/C2) was 25.3 nM and the IC50 (Cdk7) was less than 50 nM. For the same compound, the IC50 (A129) was 8.7 nM, the IC50 (c-Src; kinase panel, 10 μM ATP, read-out: c-Src IC50) was less than 100 nM and the IC50 (c-Src; [1]) was less than 50 nM. It also gave an IC50 (Lyn; kinase panel, 10 μM ATP, read-out: Lyn IC50) of less than 100 nM and an IC50 (Lyn; [2]) of less than 100 nM.
`CC(C)N1CCN(C(=O)COc2ccc(-c3n[nH]c4c3C(=O)c3c(NC(=O)NN5CCOCC5)cccc3-4)cc2)CC1` [Compound A37] was tested, and the “RR (relative resistance) CEM/C2 vs CEM” value (CEM/C2) was 0.72, the IC50 (CEM/C2) was 15.3 nM and the IC50 (Cdk7) was less than 500 nM. It also gave an IC50 (A129) of 5.7 nM, an IC50 (c-Src; [1]) of less than 50 nM and an IC50 (Lyn; [2]) of less than 50 nM.
